Data published in patent publication US12473304B2, “Heterocyclic PAD4 inhibitors” (BRISTOL-MYERS SQUIBB COMPANY, priority 2020, dated 2025).

target: human PAD4 (hPAD4) (Homo sapiens (Human), UniProt Q9UM07); experiment: RFMS Human PAD4 Functional Assay 1; assay type: biochemical; conditions: RFMS assay 1; 5 nM hPAD4, 250 μM BAEE substrate, 50 μM calcium, 37° C.
Summary of the method: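 Recombinant hPAD4 (5 nM) was preincubated with compound (top 50 μM, 0.5% DMSO) for 30 min at 37 °C, then reacted with 250 μM BAEE for 90 min at 37 °C in pH 7.5 HEPES buffer with 50 μM calcium and 5 μM TPEN. Product was derivatized with phenyl glyoxal and quantified by RapidFire MS.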

Sequence of human PAD4 (hPAD4) (Q9UM07 whole entry): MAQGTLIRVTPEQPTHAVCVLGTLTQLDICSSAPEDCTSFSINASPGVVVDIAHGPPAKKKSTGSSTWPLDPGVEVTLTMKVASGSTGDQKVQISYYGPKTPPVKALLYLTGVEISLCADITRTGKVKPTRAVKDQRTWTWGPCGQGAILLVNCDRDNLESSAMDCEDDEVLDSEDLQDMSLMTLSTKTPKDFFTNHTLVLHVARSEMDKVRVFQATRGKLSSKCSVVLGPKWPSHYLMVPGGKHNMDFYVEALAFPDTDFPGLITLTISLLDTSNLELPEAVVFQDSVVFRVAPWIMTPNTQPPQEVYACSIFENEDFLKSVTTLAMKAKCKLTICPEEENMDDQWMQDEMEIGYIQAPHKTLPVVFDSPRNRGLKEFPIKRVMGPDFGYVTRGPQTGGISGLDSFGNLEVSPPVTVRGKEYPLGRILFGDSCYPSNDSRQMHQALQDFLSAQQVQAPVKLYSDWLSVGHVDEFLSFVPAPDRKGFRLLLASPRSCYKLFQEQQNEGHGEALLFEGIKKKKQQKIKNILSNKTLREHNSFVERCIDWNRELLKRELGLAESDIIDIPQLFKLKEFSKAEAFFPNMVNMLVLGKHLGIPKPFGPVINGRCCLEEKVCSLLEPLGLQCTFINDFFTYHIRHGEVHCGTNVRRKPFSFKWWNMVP

In order of falling IC50:
1. COC(C)(C)C(=O)N1CCC(c2cccc3cc(-c4nn5cc(C(=O)N6C[C@H](N)C[C@@H](F)C6)cc(F)c5c4C)n(CC4CC4)c23)CC1 [Example 417, 1-(4-(2-(6-((3R,5R)-3-Amino-5-fluoropiperidin-1-carbonyl)-4-fluoro-3-methylpyrazolo[1,5-a]pyridin-2-yl)-1-(cyclopropylmethyl)-1H-indol-7-yl)piperidin-1-yl)-2-methoxy-2-methylpropan-1-one]  5060 nM
2. COC(C)(C)C(=O)N1CCC(c2cccc3cc(-c4nn5cc(C(=O)N6CCC[C@@H](N)C6)cc(F)c5c4C)n(CC4CC4)c23)CC1 [Example 418, (R)-1-(4-(2-(6-(3-Aminopiperidin-1-carbonyl)-4-fluoro-3-methylpyrazolo[1,5-a]pyridin-2-yl)-1-(cyclopropylmethyl)-1H-indol-7-yl)piperidin-1-yl)-2-methoxy-2-methylpropan-1-one]  1710 nM
3. Cc1c(-c2cc3cccc(C4CCN(C(=O)[C@H]5CC[C@@H](O)CC5)CC4)c3n2CC2CC2)nn2cc(C(=O)N3C[C@H](N)C[C@@H](F)C3)cc(F)c12 [Example 416, ((3R,5R)-3-Amino-5-fluoropiperidin-1-yl)(2-(1-(cyclopropylmethyl)-7-(1-((1s,4s)-4-hydroxycyclohexane-1-carbonyl)piperidin-4-yl)-1H-indol-2-yl)-4-fluoro-3-methylpyrazolo[1,5-a]pyridin-6-yl)methanone]  560 nM
4. Cc1c(-c2cc3cccc(C4CCN(C(=O)[C@H]5CC[C@H](O)CC5)CC4)c3n2CC2CC2)nn2cc(C(=O)N3CCC[C@@H](N)C3)cc(F)c12 [Example 415, ((R)-3-Aminopiperidin-1-yl)(2-(1-(cyclopropylmethyl)-7-(1-((1r,4r)-4-hydroxycyclohexane-1-carbonyl)piperidin-4-yl)-1H-indol-2-yl)-4-fluoro-3-methylpyrazolo[1,5-a]pyridin-6-yl)methanone]  460 nM
5. Cc1c(-c2cc3cccc(C4CCN(C(=O)[C@H]5CC[C@H](O)CC5)CC4)c3n2CC2CC2)nn2cc(C(=O)N3C[C@H](N)C[C@@H](F)C3)cc(F)c12 [Example 414, ((3R,5R)-3-Amino-5-fluoropiperidin-1-yl)(2-(1-(cyclopropylmethyl)-7-(1-((1r,4r)-4-hydroxycyclohexane-1-carbonyl)piperidin-4-yl)-1H-indol-2-yl)-4-fluoro-3-methylpyrazolo[1,5-a]pyridin-6-yl)methanone]  260 nM
6. CO[C@@H](C)C(=O)N1CCC(c2cccc3cc(-c4nn5cc(C(=O)N6C[C@H](N)C[C@@H](F)C6)cc(F)c5c4C)n(CC4CC4)c23)CC1 [Example 423, (S)-1-(4-(2-(6-((3R,5R)-3-Amino-5-fluoropiperidine-1-carbonyl)-4-fluoro-3-methylpyrazolo[1,5-a]pyridin-2-yl)-1-(cyclopropylmethyl)-1H-indol-7-yl)piperidin-1-yl)-2-methoxypropan-1-one]  150 nM
7. COc1cc(C(=O)N2C[C@H](N)C[C@@H](F)C2)cn2nc(-c3cc4cccc(C5CCN(C(C)=O)CC5)c4n3CC3CC3)c(C)c12 [Example 411, 1-(4-(2-(6-((3R,5R)-3-Amino-5-fluoropiperidine-1-carbonyl)-4-methoxy-3-methylpyrazolo[1,5-a]pyridin-2-yl)-1-(cyclopropylmethyl)-1H-indol-7-yl)piperidin-1-yl)ethan-1-one]  110 nM
8. COc1cc(C(=O)N2CCC[C@@H](N)C2)cn2nc(-c3cc4cccc(C5CCN(C(C)=O)CC5)c4n3CC3CC3)c(C)c12 [Example 410, (R)-1-(4-(2-(6-(3-Aminopiperidine-1-carbonyl)-4-methoxy-3-methylpyrazolo[1,5-a]pyridin-2-yl)-1-(cyclopropylmethyl)-1H-indol-7-yl)piperidin-1-yl)ethan-1-one]  90 nM
9. CO[C@@H](C)C(=O)N1CCC(c2cccc3cc(-c4nn5cc(C(=O)N6CCC[C@@H](N)C6)cc(F)c5c4C)n(CC4CC4)c23)CC1 [Example 424, (S)-1-(4-(2-(6-((R)-3-Aminopiperidine-1-carbonyl)-4-fluoro-3-methylpyrazolo[1,5-a]pyridin-2-yl)-1-(cyclopropylmethyl)-1H-indol-7-yl)piperidin-1-yl)-2-methoxypropan-1-one]  80 nM
10. CO[C@H](C)C(=O)N1CCC(c2cccc3cc(-c4nn5cc(C(=O)N6C[C@H](N)C[C@@H](F)C6)cc(F)c5c4C)n(CC4CC4)c23)CC1 [Example 425, (R)-1-(4-(2-(6-((3R,5R)-3-Amino-5-fluoropiperidine-1-carbonyl)-4-fluoro-3-methylpyrazolo[1,5-a]pyridin-2-yl)-1-(cyclopropylmethyl)-1H-indol-7-yl)piperidin-1-yl)-2-methoxypropan-1-one]  50 nM
11. CO[C@H](C)C(=O)N1CCC(c2cccc3cc(-c4nn5cc(C(=O)N6CCC[C@@H](N)C6)cc(F)c5c4C)n(CC4CC4)c23)CC1 [Example 426, (R)-1-(4-(2-(6-((R)-3-Aminopiperidine-1-carbonyl)-4-fluoro-3-methylpyrazolo[1,5-a]pyridin-2-yl)-1-(cyclopropylmethyl)-1H-indol-7-yl)piperidin-1-yl)-2-methoxypropan-1-one]  50 nM
12. COc1cc(C(=O)N2CCC[C@@H](N)C2)cn2nc(-c3cc4cccc(C5CCN(C(=O)[C@H]6CC[C@H](O)CC6)CC5)c4n3CC3CC3)c(C)c12 [Example 408, ((R)-3-Aminopiperidin-1-yl)(2-(1-(cyclopropylmethyl)-7-(1-((1r,4r)-4-hydroxycyclohexane-1-carbonyl)piperidin-4-yl)-1H-indol-2-yl)-4-methoxy-3-methylpyrazolo[1,5-a]pyridin-6-yl)methanone]  40 nM
13. COc1cc(C(=O)N2C[C@H](N)C[C@@H](F)C2)cn2nc(-c3cc4cccc(C5CCN(C(=O)[C@H]6CC[C@H](O)CC6)CC5)c4n3CC3CC3)c(C)c12 [Example 409, ((3R,5R)-3-Amino-5-fluoropiperidin-1-yl)(2-(1-(cyclopropylmethyl)-7-(1-((1r,4r)-4-hydroxycyclohexane-1-carbonyl)piperidin-4-yl)-1H-indol-2-yl)-4-methoxy-3-methylpyrazolo[1,5-a]pyridin-6-yl)methanone]  40 nM
14. COc1cc(C(=O)N2C[C@H](N)C[C@@H](F)C2)cn2nc(-c3cc4cccc(C5CCN(C(=O)[C@H]6CC[C@@H](O)CC6)CC5)c4n3CC3CC3)c(C)c12 [Example 407, ((3R,5R)-3-Amino-5-fluoropiperidin-1-yl)(2-(1-(cyclopropylmethyl)-7-(1-((1s,4s)-4-hydroxycyclohexane-1-carbonyl)piperidin-4-yl)-1H-indol-2-yl)-4-methoxy-3-methylpyrazolo[1,5-a]pyridin-6-yl)methanone]  30 nM
15. CC(=O)N1CCC(c2cccc3cc(-c4nn5cc(C(=O)N6CCC[C@@H](N)C6)cc(F)c5c4C)n(CC4CC4)c23)CC1 [Example 413, (R)-1-(4-(2-(6-(3-Aminopiperidine-1-carbonyl)-4-fluoro-3-methylpyrazolo[1,5-a]pyridin-2-yl)-1-(cyclopropylmethyl)-1H-indol-7-yl)piperidin-1-yl)ethan-1-one]  30 nM
16. COc1cc(C(=O)N2CC3CCC2[C@@H]3N)cn2nc(-c3cc4cccc(C5CCN(C(C)=O)CC5)c4n3CC3CC3)c(C)c12 (stereo partly drawn) [Example 412, 1-(4-(2-(6-((7R)-7-Amino-2-azabicyclo[2.2.1]heptane-2-carbonyl)-4-methoxy-3-methylpyrazolo[1,5-a]pyridin-2-yl)-1-(cyclopropylmethyl)-1H-indol-7-yl)piperidin-1-yl)ethan-1-one]  10 nM
